Results reported in patent US6916789B2, “Peyer's patch and/or M-cell targeting ligands” (Merrion Research I Limited, priority 2001, dated 2005).
Where no end group is shown, it is not given here. [ ]: non-standard residue; d: D form.

Assays:
[1] = test system: intestinal tissue of different species namely dog, mouse, pig, and rat; test: Peptide binding to intestinal tissue of different species; conditions: biotin-tagged peptides
Experimental: (§1) Peptide sequences (SEQ ID NOs:3, 7, 8, 9 and 14) were synthesized with biotin tags at the amino terminal for all peptides and additionally at the carboxyl terminal for SEQ ID NOs:8 and 14. Binding of these peptides to intestinal tissue of different species namely dog, mouse, pig, and rat was performed. […] (See FIGS. 14A-14H). Binding of peptides (SEQ ID NOs:8 and 14) to rat tissue from different organs, namely liver, lung, mesenteric lymph nodes, spleen and kidney, was performed. […] (See FIGS. 15A-15E).

[2] = test system: rat intestinal tissue homogenates; test: Synthetic peptide ELISA-based binding to rat intestinal tissue homogenates; conditions: biotin-tagged peptides; Example 5
Experimental: The rat tissue homogenates were prepared by harvesting rat GI and Peyer's patch and storing them on ice until needed, or 1-2 hours. The tissue was then put into homogenization buffer (250 mM Sucrose, 12 mM Tris, 16 mM EDTA) with protease inhibitor cocktail. A hand-held homogenizer was used to break up the tissue for 3-4 minutes. The contents of the homogenizer were then transferred to microfuge tubes and spun at 1500 rpm for 1 minute. The supernatant was taken off and measured for protein content using the Bio-Rad Assay. Specificity studies were then run to allow differentiation between Peyer's patch specific and non-specific binding properties. The 55 high-binding clones were assayed for binding to rat small intestinal homogenates (i.e., homogenate membrane fractions) with and without Peyer's Patch tissue (i.e., tissue homogenate membrane fractions) present. (See FIGS. 6 and 7). The negative control was M13 mp18 with no peptide insert.
(§2) Peptide sequences (SEQ ID NOs: 3, 4, 5, 7, 8, 9, 10, 11, 14, 15, 16, 17, 19, 20, 26, 28, 29, 30) were synthesized with biotin tags at the amino terminal for all peptides and additionally at the carboxyl terminal for SEQ ID NOs:8 and 14. Binding of these peptides to Caco-2 homogenates and/or to rat intestinal tissue homogenates was tested in an ELISA-based assay with streptavidin-peroxidase detection. […] (See FIGS. 13A-13N).

Caco-2 homogenates [3] = test: Synthetic peptide ELISA-based binding to Caco-2 homogenates (streptavidin-peroxidase detection); parameters: species or system human; conditions: for peptide binding: biotin-tagged peptides, Example 5; for binder category / binding to epithelium: ELISA, intestinal epithelial tissue, FIGS. 17A-17B Caco-2 homogenates; for Binding Assay results (Caco-2), category / Binding Assay results (Caco-2), Kd: Tables 9 and 10
Experimental: In order to prepare the Caco-2 cell membrane and cytosolic fractions, confluent Caco-2 cell monolayers (grown in 75 cm^2 flasks for up to 1 week at 37° C. and 5% CO2) were washed twice in Dulbecco's PBS (DPBS). The cell monolayers were then treated with 10 mM EDTA-DPBS for 5-10 minutes at 37° C. and the cells were harvested by centrifugation at 1000 rpm for 5 minutes. The cells were then washed 3×in DPBS. The cell pellet was resuspended in 3 volumes of ice-cold HED buffer (20 mM HEPES (pH 7.67), 1 mM EGTA, 0,5 mM dithiothreitol, 1 mM phenylmethylsuphonyl fluoride (PMSF)) and the cells were allowed to swell for 5 minutes on ice. The cells were then homogenized for 30 seconds. The cell homogenates were then centrifuged in hard walled tubes at 40,000 rpm for 45 minutes at 4° C. (ultracentrifuge Ti90 rotor). The supernatant was removed and the pellet resuspended in HEDG buffer (20 mM HEPES (pH 7.67), 1 mM EGTA, 0.5 mM dithiothreithol, 100 mM NaCl, 10% glycerol, 1 mM PMSF). Three volumes of buffer were then added and the pellet was resuspended and centrifuged again at 1000 rpm for 2 minutes. The supernatant was removed and stored on ice. The procedure was repeated adding the second supernatant to the first and then the procedure was repeated 2-3 more times. The protein concentration was determined using the Bio-Rad protein assay. All fractions were stored at −80° C.
as §2

Caco-2 homogenates [4] = test: Peptide coated particles ELISA-based binding to Caco-2 homogenates; parameters: species or system human; conditions: for binding of peptide coated particles: peptide adsorbed to streptavidin particles (0.289 μm)
Experimental: Several phage-derived peptides (SEQ ID NOs: 25, 31, 32, 33, and 40) were adsorbed to streptavidin particles (0.289 μm). Peptide coated particles were tested in an ELISA-based assay for binding to Caco-2 homogenates. […] In addition, when one double-mutant peptide ligand (SEQ ID NO:33), is adsorbed to polystyrene particles binding that is approximately 60% of that of the parent peptide is observed (See FIGS. 19A-19B).

[5] = test system: intestinal epithelial tissue; test: Cysteine binding studies: co-incubation with free L-cysteine; conditions: L-cysteine 100 mM to 0.003 mM; peptide 6.25-25 μg/ml
Experimental: FIG. 16A is a graph of the binding of SEQ ID NO:8 at a concentration of 25 μg/ml to intestinal epithelial tissue in the presence of varying concentrations of free L-cysteine as a function of absorbance at 650 nm.
Peptide SEQ ID NO:8, at a concentration of 6.25 μg/ml, 12.5 μg/ml and 25 μg/ml, was co-incubated with L-cysteine over the concentration range of 100 mM to 0.003 mM. Peptide SEQ ID NO:25, at a concentration of 6.25 μg/ml was co-incubated with L-cysteine over the concentration range of 100 mM to 0.003 mM.

[6] = test system: rat tissue from different organs, namely liver, lung, mesenteric lymph nodes, spleen and kidney; test: Peptide binding to rat tissue from different organs
Experimental: as §1

[7] = test system: human Peyer's patch tissue sections; test: Biotinylated peptide binding to human Peyer's patch tissue sections (streptavidin-HRP/DAB staining); conditions: biotinylated peptide at 50 μg/ml; for binding to human Peyer's patch: 1 hour
Experimental: Three synthetic peptides (SEQ ID NO:8, 25 and 14) derived from isolated clones were biotinylated and tested for binding to human Peyer's patch tissue sections. In addition, a known negative binding peptide was included as a negative control. Paraffin sections of human Peyer's patch were deparaffinized and […]. The sections were rinsed in PBS. The antigenic determinants on the tissue were unmasked by microwaving in 2.1 g/L acetic acid for 5 minutes and allowed to cool at room temperature for 20 minutes while covered in plastic wrap. After 20 minutes, the sections were washed in PBS and then blocked in endogenous peroxidase in 1% hydrogen peroxide in methanol for 10 minutes. The rinse was repeated and the sections were blocked with 2% BSA in PBS for 20 minutes at room temperature. The sections were incubated with peptide at 50 μg/ml in […] in PBS for 1 hour at room temperature. Control tissue was treated with BSA alone. The sections were rinsed with 0.05% Tween in PBS. Streptavidin-HRP at 1/500 in 2% BSA was added for 30-60 minutes at room temperature. Again, the sections were rinsed with PBS/Tween. DAB substrate was added for up to 5 minutes, and the reaction was stopped by immersing the slides in water. The sections were counterstained using Haematoxlin for 50 seconds and then rinsed in water. The slides were differentiated in 1% acid alcohol for 5-10 seconds and then rinsed in water. The slides were mounted using aqueous mounting medium and a cover slip.

M-cells = test: Peptide coated fluorescent polystyrene particles in mouse intestinal loops, confocal microscopy; type: in vivo; conditions: fluorescent polystyrene particles (0.289 μm), 30 minutes incubation in loops
Experimental: Biotinylated SEQ ID NO:40 was adsorbed to the surface of fluorescent polystyrene particles (0.289 μm) using routine methodologies at room temperature. Mouse intestinal loops containing one or more polystyrene suspensions (typically 300 μl containing 5.0×10^10 particles per ml) were incubated for 30 minutes. The Peyer's patches were excised, fixed in methanol and the M cells were counter-stained with UEA1-rhodamine for subsequent analysis by confocal microscopy. Stained tissues were examined on a BioRad MRC 600 confocal laser-scanning microscope.

Substance | binder category / binding to epithelium (Caco-2 homogenates [3]) | Binding Assay results (Caco-2), category (Caco-2 homogenates [3]) | Binding Assay results (Caco-2), Kd (Caco-2 homogenates [3]) | further results
DYDSLSWRSTLH (polypeptide ligand) [SEQ ID NO:3] | – | – | – | differences in binding profiles to tissue of different species [1]: No major differences; peptide binding [2]: High binding; peptide binding (Caco-2 homogenates [3]): High binding
DYDSLSWRSTLHGGHESSH (polypeptide ligand) [SEQ ID NO:43] | – | – | – | effect of added Zinc-binding motif (HESSH) on binding (Caco-2 homogenates [3]; compared with SEQ ID NO:3): Enhanced binding
KPAYTHEYRWLA (polypeptide ligand) [SEQ ID NO:7] | – | – | – | differences in binding profiles to tissue of different species [1]: No major differences
LETTAASLAYPS (polypeptide ligand) [SEQ ID NO:33] | binding to the epithelium is abrogated | No binding | – | binding relative to that of the parent peptide (Caco-2 homogenates [4]; peptide adsorbed to polystyrene particles): approximately 60%; binding of peptide coated particles (Caco-2 homogenates [4]): Binding was retained
LETTAASLCYPS [SEQ ID NO:31] | binding is still retained | Medium binder | (Kd˜9 μg/ml) | binding of peptide coated particles (Caco-2 homogenates [4]): Binding was retained
LETTCASLAYPS [SEQ ID NO:32] | binding is still retained | Medium binder | (Kd˜8 μg/ml) | binding of peptide coated particles (Caco-2 homogenates [4]): Binding was retained
LETTCASLCYPS (polypeptide ligand) [SEQ ID NO:8] | medium binder | Medium binder | – | differences in binding profiles to tissue of different species [1]: No major differences; effect of free L-cysteine on peptide binding [5]: prevented binding; differences in binding profiles to tissues of different organs [6]: No major differences; staining localisation [7]: positive staining on the apical side of human enterocytes; binding to human Peyer's patch [7]: Positive binding; peptide binding [2]: High binding; effect of biotin tag at amino or carboxyl end on binding affinities (Caco-2 homogenates [3]): No differences; peptide binding (Caco-2 homogenates [3]): High binding
LETTCASLCYPS [8 biotinylated derivative] | – | Medium binder | (Kd˜8 μg/ml) | –
LETTCASLCYPS [8 dansyl-lysine derivative] | – | High binder | (Kd˜1 μg/ml) | –
LETTSASLSYPS (polypeptide ligand) [SEQ ID NO:34] | – | No binding | – | –
LGTDWHSVSYTL (polypeptide ligand) [SEQ ID NO:9] | – | – | – | differences in binding profiles to tissue of different species [1]: No major differences
NTRIPEPIRFYM (polypeptide ligand) [SEQ ID NO:14] | low to medium binder | – | – | differences in binding profiles to tissue of different species [1]: No major differences; differences in binding profiles to tissues of different organs [6]: No major differences; binding to human Peyer's patch [7]: negative for binding
VCSNMYFSCRLS (polypeptide ligand) [SEQ ID NO:24] | medium binder | – | – | peptide binding [2]: High binding; peptide binding (Caco-2 homogenates [3]): High binding
VPPHPMTYSAQY (polypeptide ligand) [SEQ ID NO:38] | binding to the epithelium is abrogated | No binding | – | –
VPPHPMTYSCQY (polypeptide ligand) [SEQ ID NO:25] | highest binder | – | – | effect of free L-cysteine on peptide binding [5]: prevented binding; staining localisation [7]: positive staining on the apical side of human enterocytes; binding to human Peyer's patch [7]: Positive binding; peptide binding [2]: High binding; peptide binding (Caco-2 homogenates [3]): High binding; binding of peptide coated particles (Caco-2 homogenates [4]): Binding was retained
VPPHPMTYSCQY [25 Dansyl-lysine derivative] | – | – | (Kd < 1 μg/ml) | –
VPPHPMTYSCQY [25 biotinylated derivative] | – | High binder | (Kd < 5 μg/ml) | –
VPPHPMTYSSQY (polypeptide ligand) [SEQ ID NO:39] | – | No binding | – | –
lettcaslcyps ([dL][dE][dT][dT][dC][dA][dS][dL][dC][dY][dP][dS]; cysteine pairing not given here) [SEQ ID NO:36] | – | – | (Kd˜30.53 μg/ml) | –
spyclsacttel ([dS][dP][dY][dC][dL][dS][dA][dC][dT][dT][dE][dL]; cysteine pairing not given here) [SEQ ID NO:35] | – | Medium binder | (Kd˜13.91 μg/ml) | –
vpphpmtyscqy ([dV][dP][dP][dH][dP][dM][dT][dY][dS][dC][dQ][dY]) [SEQ ID NO:37] | retained high binding | – | (Kd˜10 μg/ml) | –
yqcsytmphppv ([dY][dQ][dC][dS][dY][dT][dM][dP][dH][dP][dP][dV]) [SEQ ID NO:40] | retained high binding | – | (Kd˜10 μg/ml) | binding and uptake of peptide coated particles (M-cells): binding and uptake into M-cells; binding of peptide coated particles (Caco-2 homogenates [4]): Binding was retained
